Data as given in US11879140B2, “P21 mRNA targeting DNAzymes” (1E Therapeutics Ltd., priority 2020, dated 2024).

Tested on: senescent human IMR-90 fibroblast cells
Type: cell-based
Protocol: Human IMR-90, BJ, WI-38 fibroblasts and REC epithelial cells were obtained from ATCC and grown at 5% oxygen. IMR-90 and REC cells were maintained in DMEM medium comprising 100 units per ml of penicillin, […] of streptomycin and 10% fetal bovine serum. BJ and WI-38 cells were maintained in EMEM medium comprising 100 units per ml of penicillin, […] of streptomycin, 10% fetal bovine serum, 1% Pyruvate, 1% L-Glutamine, mLFs were isolated according to standard procedures [Seluanov, A., et al. J Vis Exp (2010) (44):2033] and grown at 5% oxygen. Cells were maintained in EMEM medium comprising 100 units per ml of penicillin, […] of streptomycin and 15% fetal bovine serum.
DNA damage induced senescence (DIS) was induced by etoposide treatment (E1383, Sigma) at a concentration of […] for IMR-90, BJ, and WI-38, 16 μM for mLF and 12.5 μM for REC for a duration of 48 hours. Cells acquired the senescence phenotype 7 days post treatment (determined by SA-beta-gal staining).
Oncogene Induced Senescence (OIS) was induced by means of retroviral infection with H-RasG12 (pLNCX2) at 5% oxygen. Retroviruses were packaged, and infections were performed as described below.
Replicative Induced Senescence (RIS) was induced by long-term passaging of the cells in tissue culture. Cells acquired the senescence phenotype after 40 population doublings.
Primary target cells (IMR-90, BJ, […]) were plated in 24-well plates at 100,000 cells per well. Cells were transfected with different concentrations of DNAzymes (as depicted in Table 2, below) using Lipofectamine™ 2000 (Invitrogen) according to manufacturer instructions. The percentage of survival was determined based on quantification of remaining adherent cells using PrestoBlue® reagent (A13262, Life Technologies Ltd.) relative to Lipofectamine™ only control and compared to Scramble DNAzyme (Dz_Scramble) [Scramble Arm (Scr A) sequence: ATCTTCCTFggctagctacaacgaCGCCTCTCC, SEQ ID NO: 5, or Scramble catalytic core (Scr B) sequence: AGGAGAACAacagtaactggcgacGGGATGAGG, SEQ ID NO: 86] treated cells, 3-6 days following transfection.

Substance	Validated cytotoxicity
16 (DNA CCTCTTCTAGGCTAGCTACAACGAGCCAGAGCT; chemistry not given here) [compound 16]	+
75 (DNA CTCCTACCAGGCTAGCTACAACGACCCCTTCCT; chemistry not given here) [compound 75]	+
78 (DNA TGTCTCCTAGGCTAGCTACAACGACATCCCCTT; chemistry not given here) [compound 78]	+
100 (DNA TCTGGGGTTCCGAGCCGGACGATTAGAGGTC; chemistry not given here) [compound 100]	+
111 (DNA CATCCTTTAGGCTAGCTACAACGATTCTGGGGT; chemistry not given here) [compound 111]	+
174 (DNA GCAAAGAAAGGCTAGCTACAACGAGACTATAGT; chemistry not given here) [compound 174]	+
185 (DNA CAGATCATGGGCTAGCTACAACGAAGCAAAGAA; chemistry not given here) [compound 185]	+
224 (DNA TGGGGAAATCCGAGCCGGACGAGGGGCTCAG; chemistry not given here) [compound 224]	+
225 (DNA CTGGGGAAAGGCTAGCTACAACGATGGGGCTCA; chemistry not given here) [compound 225]	+
236 (DNA CGTATACATCCGAGCCGGACGAGCTGGGGAA; chemistry not given here) [compound 236]	+
237 (DNA CCGTATACAGGCTAGCTACAACGATGCTGGGGA; chemistry not given here) [compound 237]	+
252 (DNA TACTCCCCAGGCTAGCTACAACGAATAGCCCGT; chemistry not given here) [compound 252]	+
266 (DNA GTCTGTCTTCCGAGCCGGACGATGAATACTC; chemistry not given here) [compound 266]	+
290 (DNA AGGGGAGGAGGCTAGCTACAACGATTGACGAGT; chemistry not given here) [compound 290]	+
304 (DNA TTTGTTGGTCCGAGCCGGACGAAGGAAGGGG; chemistry not given here) [compound 304]	+
317 (DNA TGGTTGCAGGGCTAGCTACAACGAAGCTTTGTT; chemistry not given here) [compound 317]	+
352 (DNA GTTCTGACAGGCTAGCTACAACGAGGCGCCTGA; chemistry not given here) [compound 352]	+
354 (DNA CGGTTCTGAGGCTAGCTACAACGAATGGCGCCT; chemistry not given here) [compound 354]	+
364 (DNA TGACGGACAGGCTAGCTACAACGACCCCAGCCG; chemistry not given here) [compound 364]	+
377 (DNA GGGTTCTGAGGCTAGCTACAACGAGGACATCCC; chemistry not given here) [compound 377]	+
387 (DNA GCTGCCGCAGGCTAGCTACAACGAGGGTTCTGA; chemistry not given here) [compound 387]	+
394 (DNA AGGCCTTGTCCGAGCCGGACGAGCCGCATGG; chemistry not given here) [compound 394]	+
442 (DNA AGTCGCGGTCCGAGCCGGACGACAGCTGCTC; chemistry not given here) [compound 442]	+
495 (DNA GAAGTTCCAGGCTAGCTACAACGACGCTCACGG; chemistry not given here) [compound 495]	+
603 (DNA ATCCCGGCTCCGAGCCGGACGACGCCGGGGC; chemistry not given here) [compound 603]	+
835 (DNA AGGGCTTCTCCGAGCCGGACGACTTGGAGAA; chemistry not given here) [compound 835]	+
846 (DNA GTGGGCGGAGGCTAGCTACAACGATAGGGCTTC; chemistry not given here) [compound 846]	+
857 (DNA GCAGGCTTTCCGAGCCGGACGATGTGGGCGG; chemistry not given here) [compound 857]	+

Substance	Validated cytotoxicity
974 (DNA GGGTATGTAGGCTAGCTACAACGAATGAGGAGG; chemistry not given here) [compound 974]	+
1003 (DNA GCCAGAGGTCCGAGCCGGACGAGGGGGGCAG; chemistry not given here) [compound 1003]	+
1013 (DNA TAATTCTAAGGCTAGCTACAACGAGCCAGAGGC; chemistry not given here) [compound 1013]	+
1089 (DNA TAAATAGTAGGCTAGCTACAACGATTCATAAAA; chemistry not given here) [compound 1089]	+
1252 (DNA GGGGGTGAAGGCTAGCTACAACGATTCATAACC; chemistry not given here) [compound 1252]	+
1417 (DNA GCTCAGCCTCCGAGCCGGACGAAGGCTGTGC; chemistry not given here) [compound 1417]	+
1418 (DNA AGCTCAGCTCCGAGCCGGACGATAGGCTGTG; chemistry not given here) [compound 1418]	+
1455 (DNA AGGGGGGTAGGCTAGCTACAACGACAAGAGCCA; chemistry not given here) [compound 1455]	+
1467 (DNA TTCACAAGAGGCTAGCTACAACGAAGAGGGGGG; chemistry not given here) [compound 1467]	+
1504 (DNA GGGGTGGTTCCGAGCCGGACGAGCTCCAGGA; chemistry not given here) [compound 1504]	+
1524 (DNA GAGGGGCCAGGCTAGCTACAACGAGAGGGCAGG; chemistry not given here) [compound 1524]	+
1582 (DNA CAGGGGAGTCCGAGCCGGACGAAAAGAGGGA; chemistry not given here) [compound 1582]	+
1591 (DNA CAAAAGGTAGGCTAGCTACAACGAAGGGGAGCC; chemistry not given here) [compound 1591]	+
1602 (DNA CTGGGGCTTCCGAGCCGGACGATCAAAAGGT; chemistry not given here) [compound 1602]	+
1610 (DNA AAGGGTAGTCCGAGCCGGACGAGGGGCTCCT; chemistry not given here) [compound 1610]	+
1641 (DNA AGAGGGGAAGGCTAGCTACAACGATGCAGAGCC; chemistry not given here) [compound 1641]	+
1683 (DNA AGAGGGTATCCGAGCCGGACGAGAAGGGAAA; chemistry not given here) [compound 1683]	+
1684 (DNA GAGAGGGTAGGCTAGCTACAACGATGAAGGGAA; chemistry not given here) [compound 1684]	+
1719 (DNA GGGGTGGGAGGCTAGCTACAACGAAGGCACCTC; chemistry not given here) [compound 1719]	+
1736 (DNA CCATTGAGTCCGAGCCGGACGAGGGGGTGGG; chemistry not given here) [compound 1736]	+
1742 (DNA TCCAGTCCAGGCTAGCTACAACGATGAGCTGGG; chemistry not given here) [compound 1742]	+
1786 (DNA GAGGTAGAAGGCTAGCTACAACGATAGGGTGCC; chemistry not given here) [compound 1786]	+
1791 (DNA TGCCTGAGGGGCTAGCTACAACGAAGAACTAGG; chemistry not given here) [compound 1791]	+
1800 (DNA TGCTTGAGTCCGAGCCGGACGAGCCTGAGGT; chemistry not given here) [compound 1800]	+
1838 (DNA GGACCCTCAGGCTAGCTACAACGACCCCACAGC; chemistry not given here) [compound 1838]	+
1851 (DNA GTGCCACCAGGCTAGCTACAACGAATGGGACCC; chemistry not given here) [compound 1851]	+
1854 (DNA CCTGTGCCAGGCTAGCTACAACGACACATGGGA; chemistry not given here) [compound 1854]	+
